From patent publication US20250179052A1, “PYRIMIDINYL-OXY-QUINOLINE BASED HERBICIDAL COMPOUNDS” (SYNGENTA CROP PROTECTION AG, priority 2022, published 2025)

Tests used:
Conditions in all cases: 250 g/ha, evaluated after 13 days, five-point scale
[1] = tested on: Setaria faberi (SETFA); test: Pre-emergence herbicidal glasshouse test; assay type: in vivo
[2] = tested on: Ipomoea hederacea (IPOHE); test: Pre-emergence herbicidal glasshouse test; assay type: in vivo
[3] = tested on: Amaranthus retoflexus (AMARE); test: Post-emergence herbicidal glasshouse test; assay type: in vivo
[4] = tested on: Setaria faberi (SETFA); test: Post-emergence herbicidal glasshouse test; assay type: in vivo
[5] = tested on: Echinochloa crus-galli (ECHCG); test: Pre-emergence herbicidal glasshouse test; assay type: in vivo
[6] = tested on: Amaranthus retoflexus (AMARE); test: Pre-emergence herbicidal glasshouse test; assay type: in vivo
[7] = tested on: AMAPA; test: Post-emergence herbicidal glasshouse test; assay type: in vivo, Amaranthus tuberculatus
[8] = tested on: Ipomoea hederacea (IPOHE); test: Post-emergence herbicidal glasshouse test; assay type: in vivo
[9] = tested on: AMAPA; test: Pre-emergence herbicidal glasshouse test; assay type: in vivo, Amaranthus tuberculatus
[10] = tested on: Echinochloa crus-galli (ECHCG); test: Post-emergence herbicidal glasshouse test; assay type: in vivo

Structure (SMILES) | percentage damage caused to the plant, SETFA [1] | percentage damage caused to the plant, IPOHE [2] | percentage damage caused to the plant, AMARE [3] | percentage damage caused to the plant, SETFA [4] | percentage damage caused to the plant, ECHCG [5] | percentage damage caused to the plant, AMARE [6] | percentage damage caused to the plant, AMAPA [7] | percentage damage caused to the plant, IPOHE [8] | percentage damage caused to the plant, AMAPA [9] | percentage damage caused to the plant, ECHCG [10]
Cc1nc(C(F)(F)F)nc2cccc(Oc3ncc(Cl)cn3)c12 [Compound 1.001, 5-(5-chloropyrimidin-2-yl)oxy-4-methyl-2-(trifluoromethyl)quinazoline] | 3 (3=41-60%) | 5 (5=81-100%) | 5 (5=81-100%) | 4 (4=61-80%) | 3 (3=41-60%) | 5 (5=81-100%) | 5 (5=81-100%) | 2 (2=21-40%) | 5 (5=81-100%) | 3 (3=41-60%)
FC(F)(F)c1ncc2c(Oc3ncc(Cl)cn3)cccc2n1 [Compound 1.002, 5-(5-chloropyrimidin-2-yl)oxy-2-(trifluoromethyl)quinazoline] | 5 (5=81-100%) | 5 (5=81-100%) | 5 (5=81-100%) | 4 (4=61-80%) | 5 (5=81-100%) | 5 (5=81-100%) | 5 (5=81-100%) | 4 (4=61-80%) | 5 (5=81-100%) | 5 (5=81-100%)
N#Cc1cnc(Oc2cccc3nc(C(F)(F)F)ncc23)nc1 [Compound 1.003] | 1 (1=0-20%) | 1 (1=0-20%) | 1 (1=0-20%) | 1 (1=0-20%) | 1 (1=0-20%) | 1 (1=0-20%) | 1 (1=0-20%) | 1 (1=0-20%) | 1 (1=0-20%) | 1 (1=0-20%)
Cc1cnc(Oc2cccc3nc(C(F)(F)F)ncc23)nc1 [Compound 1.004] | 4 (4=61-80%) | 4 (4=61-80%) | 3 (3=41-60%) | 4 (4=61-80%) | 5 (5=81-100%) | 5 (5=81-100%) | 4 (4=61-80%) | 4 (4=61-80%) | 4 (4=61-80%) | 3 (3=41-60%)
FC(F)(F)c1ncc2c(Oc3ncc(Br)cn3)cccc2n1 [Compound 1.005] | 4 (4=61-80%) | 3 (3=41-60%) | 4 (4=61-80%) | 4 (4=61-80%) | 3 (3=41-60%) | 5 (5=81-100%) | 5 (5=81-100%) | 4 (4=61-80%) | 5 (5=81-100%) | 4 (4=61-80%)
Fc1cc(Cl)cnc1Oc1cccc2nc(C(F)(F)F)ncc12 [Compound 1.006] | 1 (1=0-20%) | 1 (1=0-20%) | 2 (2=21-40%) | 1 (1=0-20%) | 1 (1=0-20%) | 1 (1=0-20%) | 1 (1=0-20%) | 2 (2=21-40%) | 1 (1=0-20%) | 1 (1=0-20%)
N#Cc1cc(Cl)cnc1Oc1cccc2nc(C(F)(F)F)ncc12 [Compound 1.007] | 5 (5=81-100%) | 2 (2=21-40%) | 2 (2=21-40%) | 4 (4=61-80%) | 4 (4=61-80%) | 4 (4=61-80%) |  | 2 (2=21-40%) | 4 (4=61-80%) | 3 (3=41-60%)
FC(F)(F)c1ncc2c(Oc3ncccn3)cccc2n1 [Compound 1.008] | 4 (4=61-80%) | 3 (3=41-60%) | 3 (3=41-60%) | 1 (1=0-20%) | 1 (1=0-20%) | 4 (4=61-80%) | 3 (3=41-60%) | 3 (3=41-60%) | 4 (4=61-80%) | 1 (1=0-20%)
FC(F)Oc1cnc(Oc2cccc3nc(C(F)(F)F)ncc23)nc1 [Compound 1.009] | 1 (1=0-20%) | 1 (1=0-20%) | 1 (1=0-20%) | 1 (1=0-20%) | 1 (1=0-20%) | 1 (1=0-20%) | 1 (1=0-20%) | 1 (1=0-20%) | 2 (2=21-40%) | 1 (1=0-20%)
FC(F)(Cl)c1ncc2c(Oc3ncc(Br)cn3)cccc2n1 [Compound 1.055, 5-(5-bromopyrimidin-2-yl)oxy-2-[chloro(difluoro)methyl]quinazoline] |  | 2 (2=21-40%) | 2 (2=21-40%) |  | 4 (4=61-80%) | 5 (5=81-100%) | 3 (3=41-60%) | 2 (2=21-40%) | 5 (5=81-100%) | 2 (2=21-40%)
Cc1cnc(Oc2cccc3nc(C(F)(F)Cl)ncc23)nc1 [Compound 1.056, 2-[chloro(difluoro)methyl]-5-(5-methylpyrimidin-2-yl)oxy-quinazoline] |  | 5 (5=81-100%) | 2 (2=21-40%) |  | 5 (5=81-100%) | 5 (5=81-100%) | 4 (4=61-80%) | 4 (4=61-80%) | 5 (5=81-100%) | 3 (3=41-60%)
FC(F)(Cl)c1ncc2c(Oc3ncc(Cl)cn3)cccc2n1 [Compound 1.057] |  | 5 (5=81-100%) | 4 (4=61-80%) |  | 5 (5=81-100%) | 5 (5=81-100%) | 4 (4=61-80%) | 4 (4=61-80%) | 5 (5=81-100%) | 4 (4=61-80%)
Fc1cnc(Oc2cccc3nc(C(F)F)ncc23)nc1 [Compound 1.058] |  | 3 (3=41-60%) | 2 (2=21-40%) |  | 1 (1=0-20%) | 5 (5=81-100%) | 2 (2=21-40%) | 4 (4=61-80%) | 5 (5=81-100%) | 1 (1=0-20%)
Fc1cnc(Oc2cccc3nc(C(F)(F)Cl)ncc23)nc1 [Compound 1.061, 2-[chloro(difluoro)methyl]-5-(5-fluoropyrimidin-2-yl)oxy-quinazoline] |  | 5 (5=81-100%) | 4 (4=61-80%) |  | 5 (5=81-100%) | 5 (5=81-100%) | 4 (4=61-80%) | 4 (4=61-80%) | 5 (5=81-100%) | 4 (4=61-80%)
N#Cc1ccc(Oc2ncc(Cl)cn2)c2cnc(C(F)(F)F)nc12 [Compound 1.065] |  | 1 (1=0-20%) | 1 (1=0-20%) |  | 1 (1=0-20%) | 1 (1=0-20%) | 1 (1=0-20%) | 2 (2=21-40%) | 1 (1=0-20%) | 1 (1=0-20%)
Cc1cc(C(F)(F)F)nc2cccc(Oc3ncc(Cl)cc3F)c12 [Compound 1.066] |  | 1 (1=0-20%) | 1 (1=0-20%) |  | 1 (1=0-20%) | 1 (1=0-20%) | 1 (1=0-20%) | 1 (1=0-20%) | 1 (1=0-20%) | 1 (1=0-20%)
